Data on 28 molecules can be found in patent US8691816B2, “Pyrrole inhibitors of S-nitrosoglutathione reductase as therapeutic agents” (N30 Pharmaceuticals, Inc., priority 2008, dated 2014).

Structures are written as SMILES. A value given as a limit tells only on which side of the number the result lay.

T1 sequence (P11766 whole entry): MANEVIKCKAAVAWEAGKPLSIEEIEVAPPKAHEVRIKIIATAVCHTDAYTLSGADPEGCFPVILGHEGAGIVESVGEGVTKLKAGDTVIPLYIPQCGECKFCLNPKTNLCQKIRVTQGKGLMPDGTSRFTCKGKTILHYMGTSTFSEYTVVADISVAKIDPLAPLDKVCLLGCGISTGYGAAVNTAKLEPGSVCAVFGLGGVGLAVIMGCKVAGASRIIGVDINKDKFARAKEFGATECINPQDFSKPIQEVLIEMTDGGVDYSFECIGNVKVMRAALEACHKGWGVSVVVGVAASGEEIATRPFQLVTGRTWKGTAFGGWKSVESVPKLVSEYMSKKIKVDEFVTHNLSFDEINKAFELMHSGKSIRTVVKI

This assay addresses T1, GSNOR (GSNO Reductase) (Homo sapiens, UniProt P11766).
T1 construct: made in house; host or cells: E. coli (arabinose induction)
Kind of assay: GSNOR assay (in vitro inhibition of GSNOR activity, NADH absorbance at 340 nm). Conditions: 0.240 mM GSNO, 0.300 mM NADH, 0.5 μg/mL GSNO Reductase, pH 7.4, 25° C. Format: biochemical. The procedure:
Various compounds were tested in vitro for their ability to inhibit GSNOR activity. Representative compounds and their corresponding GSNOR activity are described in a paragraph before Table 1 above. GSNOR expression and purification is described in Biochemistry 2000, 39, 10720-10729.
GSNOR fermentation: Pre-cultures were grown from stabs of a GSNOR glycerol stock in 2XYT media containing 100 ug/ml ampicillin after an overnight incubation at 37° C. Cells were then added to fresh 2XYT (4 L) containing ampicillin and grown to an OD (A600) of 0.6-0.9 at 37° C. before induction. GSNOR expression was induced with 0.1% arabinose in an overnight incubation at 20° C.
GSNOR Purification: E. coli cell paste was lysed by nitrogen cavitation and the clarified lysate purified by Ni affinity chromatography on an AKTA FPLC (Amersham Pharmacia). The column was eluted in 20 mM Tris pH 8.0/250 mM NaCl with a 0-500 mM imidazole gradient. […] GSNOR was recovered in the flowthrough fraction and for crystallography is further purified by Q-Sepharose and Heparin flowthrough chromatography in 20 mM Tris pH 8.0, 1 mM DTT, 10 uM ZnSO4.
GSNOR assay: GSNO and Enzyme/NADH Solutions are made up fresh each day. The Solutions are filtered and allowed to warm to room temperature. GSNO Solution: 100 mM NaPO4 (pH 7.4), 0.480 mM GSNO. 396 μL of GSNO Solution is added to a cuvette followed by 8 μL of test compound in DMSO (or DMSO only for full reaction control) and mixed with the pipette tip. Compounds to be tested are made up at a stock concentration of 10 mM in 100% DMSO. 2 fold serial dilutions are done in 100% DMSO. 8 μL of each dilution are added to an assay so that the final concentration of DMSO in the assay is 1%. The concentrations of compounds tested range from 100 to 0.003 μM. Enzyme/NADH Solution: 100 mM NaPO4 (pH 7.4), 0.600 mM NADH, 1.0 μg/mL GSNO Reductase. 396 μL of the Enzyme/NADH Solution is added to the cuvette to start the reaction. The cuvette is placed in the Cary 3E UV/Visible Spectrophotometer and the change in 340 nm absorbance/min at 25° C. is recorded for 3 minutes. The assays are done in triplicate for each compound concentration. IC50's for each compound are calculated using the standard curve analysis in the Enzyme Kinetics Module of SigmaPlot.
Final assay conditions: 100 mM NaPO4, pH 7.4, 0.240 mM GSNO, 0.300 mM NADH, 0.5 μg/mL GSNO Reductase and 1% DMSO. Final volume: 800 μL/cuvette.
In turn, `Cc1cc(C(N)=O)ccc1-n1c(CCC(=O)O)ccc1-c1cc(-n2ccnc2C)cs1` [Compound 144, 3-(1-(4-carbamoyl-2-methylphenyl)-5-(4-(2-methyl-1H-imidazol-1-yl)thiophen-2-yl)-1H-pyrrol-2-yl)propanoic acid] displayed an IC50 of less than 1000 nM.

In turn, `COc1ccc(-c2ccc(CCC(=O)O)n2-c2ccc(C(N)=O)cc2C)c(Cl)c1` [Compound 118, 3-(1-(4-carbamoyl-2-methylphenyl)-5-(2-chloro-4-methoxy-phenyl)-1H-pyrrol-2-yl)propanoic acid] came in with an IC50 of less than 1000 nM.

Turning to `CCc1nccn1-c1ccc(-c2ccc(CCC(=O)O)n2-c2ccc(C(N)=O)cc2C)cc1` [Compound 69, 3-(1-(4-carbamoyl-2-methylphenyl)-5-(4-(2-ethyl-1H-imidazol-1-yl)phenyl)-1H-pyrrol-2-yl)propanoic acid], the IC50 was less than 1000 nM.

`COc1cc(-n2ccnc2C)ccc1-c1ccc(CCC(=O)O)n1-c1ccc(C(N)=O)cc1C` [Compound 146, 3-(1-(4-carbamoyl-2-methylphenyl)-5-(2-methoxy-4-(2-methyl-1H-imidazol-1-yl)phenyl)-1H-pyrrol-2-yl)propanoic acid] had a half-maximal inhibitory concentration (IC50) of less than 1000 nM.

For the molecule `O=C(O)CCc1ccc(-c2ccccc2)n1-c1ccc(O)c(C(=O)O)c1` [Compound 232, 5-(2-(2-carboxyethyl)-5-phenyl-1H-pyrrol-1-yl)-2-hydroxybenzoic acid], the IC50 is less than 5000 nM.

`COc1ccc(-c2ccc(CCC(=O)O)n2-c2ccc(O)c(F)c2)cc1` [Compound 229, 3-(1-(3-fluoro-4-hydroxyphenyl)-5-(4-methoxyphenyl)-1H-pyrrol-2-yl)propanoic acid] gave an IC50 of less than 5000 nM.

In turn, `Cc1nccn1-c1csc(-c2ccc(CCC(=O)O)n2-c2ccc(NS(C)(=O)=O)cc2)c1` [Compound 267, 3-(5-(4-(2-methyl-1H-imidazol-1-yl)thiophen-2-yl)-1-(4-(methylsulfonamido)-phenyl)-1H-pyrrol-2-yl)propanoic acid] came in with a half-inhibitory concentration (IC50) of less than 1000 nM.

For `COc1ccc(-c2ccc(CCC(=O)O)n2-c2ncc(C(N)=O)s2)cc1` [Compound 238, 3-(1-(5-carbamoylthiazol-2-yl)-5-(4-methoxyphenyl)-1H-pyrrol-2-yl)propanoic acid], the 50% inhibitory concentration (IC50) is less than 5000 nM.

As for `COc1ccc(-c2ccc(CCC(=O)O)n2-c2ccc(O)cc2Cl)cc1` [Compound 80, 3-(1-(2-chloro-4-hydroxyphenyl)-5-(4-methoxy-phenyl)-1H-pyrrol-2-yl)propanoic acid], the IC50 is less than 1000 nM.

Take `COc1ccc(-c2ccc(CCC(=O)O)n2-c2ccc(C(N)=O)s2)cc1` [Compound 237, 3-(1-(5-carbamoylthiophen-2-yl)-5-(4-methoxyphenyl)-1H-pyrrol-2-yl)propanoic acid]: the concentration for half-maximal inhibition (IC50) is less than 5000 nM.

The molecule `Cc1nccn1-c1ccc(-c2ccc(CCC(=O)O)n2-c2ccc(O)cc2)s1` [Compound 273, 3-(1-(4-hydroxyphenyl)-5-(5-(2-methyl-1H-imidazol-1-yl)thiophen-2-yl)-1H-pyrrol-2-yl)propanoic acid] came in with an IC50 of less than 1000 nM.

Molecule `Cc1cc2nc[nH]c2cc1-n1c(CCC(=O)O)ccc1-c1ccc(-n2ccnc2)cc1` [Compound 219, 3-(5-(4-(1H-imidazol-1-yl)phenyl)-1-(5-methyl-1H-benzo[d]imidazol-6-yl)-1H-pyrrol-2-yl)propanoic acid] showed an IC50 of less than 1000 nM.

`Cc1nccn1-c1csc(-c2ccc(CCC(=O)O)n2-c2ccc(O)cc2)c1` [Compound 255, 3-(1-(4-hydroxyphenyl)-5-(4-(2-methyl-1H-imidazol-1-yl)thiophen-2-yl)-1H-pyrrol-2-yl)propanoic acid] registered a half-inhibitory concentration (IC50) of less than 1000 nM.

Consider `COc1ccc(-c2ccc(CCC(=O)O)n2-c2ccc(C(N)=O)cc2C)c(C)c1` [Compound 110, 3-(1-(4-carbamoyl-2-methylphenyl)-5-(4-methoxy-2-methylphenyl)-1H-pyrrol-2-yl)propanoic acid], for which the half-maximal inhibitory concentration (IC50) is less than 1000 nM.

For the molecule `COc1ccc(-c2ccc(CCC(=O)O)n2-c2ccc3ncccc3c2)cc1` [Compound 216, 3-(5-(4-methoxyphenyl)-1-(quinolin-6-yl)-1H-pyrrol-2-yl)propanoic acid], the IC50 was less than 1000 nM.

Take `COc1ccc(-c2ccc(CCC(=O)O)n2-c2ccc(F)c(C#N)c2)cc1` [Compound 226, 3-(1-(3-cyano-4-fluorophenyl)-5-(4-methoxyphenyl)-1H-pyrrol-2-yl)propanoic acid]: the IC50 is less than 5000 nM.

Molecule `COc1cc(Cl)ccc1-c1ccc(CCC(=O)O)n1-c1ccc(O)cc1` [Compound 262, 3-(5-(4-chloro-2-methoxyphenyl)-1-(4-hydroxyphenyl)-1H-pyrrol-2-yl)propanoic acid] displayed an IC50 of less than 1000 nM.

`COc1cc(Cl)ccc1-c1ccc(CCC(=O)O)n1-c1ccc(C(N)=O)cc1` [Compound 264, 3-(1-(4-carbamoylphenyl)-5-(4-chloro-2-methoxyphenyl)-1H-pyrrol-2-yl)propanoic acid] returned an IC50 of less than 1000 nM.

With `Cc1cc(C(N)=O)ccc1-n1c(CCC(=O)O)ccc1-c1ccc(Cl)cc1C(N)=O` [Compound 152, 3-(1-(4-carbamoyl-2-methylphenyl)-5-(2-carbamoyl-4-chloro-phenyl)-1H-pyrrol-2-yl)propanoic acid], the half-maximal inhibitory concentration (IC50) is less than 1000 nM.

For `Cc1nccn1-c1ccc(-c2ccc(CCC(=O)O)n2-c2ccc(O)cc2)cc1` [Compound 249, 3-(1-(4-hydroxyphenyl)-5-(4-(2-methyl-1H-imidazol-1-yl)phenyl)-1H-pyrrol-2-yl)propanoic acid], the IC50 was less than 1000 nM.

The molecule `Cc1cc(C(N)=O)ccc1-n1c(CCC(=O)O)ccc1-c1cc(-n2ccnc2)cs1` [Compound 120, 3-(5-(4-(1H-imidazol-1-yl)thiophen-2-yl)-1-(4-carbamoyl-2-methylphenyl)-1H-pyrrol-2-yl)propanoic acid] yielded a concentration for half-maximal inhibition (IC50) of less than 1000 nM.

Molecule `COc1ccc(-c2ccc(CCC(=O)O)n2-c2ccc3ccncc3c2)cc1` [Compound 223, 3-(1-(isoquinolin-7-yl)-5-(4-methoxyphenyl)-1H-pyrrol-2-yl)propanoic acid] had an IC50 of less than 5000 nM.

For the molecule `Cc1nccn1-c1ccc(-c2ccc(CCC(=O)O)n2-c2ccc3[nH]c(=O)oc3c2)cc1` [Compound 236, 3-(5-(4-(2-methyl-1H-imidazol-1-yl)phenyl)-1-(2-oxo-2,3-dihydrobenzo[d]oxazol-6-yl)-1H-pyrrol-2-yl)propanoic acid], the half-inhibitory concentration (IC50) was less than 5000 nM.

`Cc1cc(NS(C)(=O)=O)ccc1-n1c(CCC(=O)O)ccc1-c1cc(Br)cs1` [Compound 183, 3-(5-(4-bromothiophen-2-yl)-1-(2-methyl-4-(methyl-sulfonamido)-phenyl)-1H-pyrrol-2-yl)propanoic acid] returned a half-maximal inhibitory concentration (IC50) of less than 5000 nM.

With `COc1ccc(-c2ccc(CCC(=O)O)n2-c2ccc3c(N)noc3c2)cc1` [Compound 231, 3-(1-(3-aminobenzo[d]isoxazol-6-yl)-5-(4-methoxyphenyl)-1H-pyrrol-2-yl)propanoic acid], the IC50 is less than 1000 nM.

For `Cc1cc(S(N)(=O)=O)ccc1-n1c(CCC(=O)O)ccc1-c1ccc(-n2ccnc2C)s1` [Compound 194], the IC50 is less than 1000 nM.

`Cc1nccn1-c1ccc(-c2ccc(CCC(=O)O)n2-c2ccc3oc(=O)[nH]c3c2)cc1` [Compound 235, 3-(5-(4-(2-methyl-1H-imidazol-1-yl)phenyl)-1-(2-oxo-2,3-dihydrobenzo[d]oxazol-5-yl)-1H-pyrrol-2-yl)propanoic acid] came in with an IC50 of less than 1000 nM.

For the molecule `COc1ccc(-c2ccc(CCC(=O)O)n2-c2ccc(C(N)=O)c(Cl)c2)cc1` [Compound 221, 3-(1-(4-carbamoyl-3-chlorophenyl)-5-(4-methoxyphenyl)-1H-pyrrol-2-yl)propanoic acid], the IC50 is less than 1000 nM.
